{"source": "patent US10702534B2", "about": "“Compositions and methods relating to the radioprotective effects of apilimod” (priority 2017, dated 2020)", "test_system": "acutely irradiated mice", "experiment": "Prevention of radiation-induced mortality in mice after 8.5 Gy total body irradiation (survival analysis)", "type": "in vivo, C57B1/6 male mice", "source_text": "Eighty-six (86) C57B1/6 male mice were randomized into 6 groups. Group 1 (n=6) served as the untreated control group (no apilimod dimesylate or radiation). Animals in Groups 2-6 (n=16/group) were exposed to an 8.5 Gy dose of total body irradiation on Day 0. Radiation was generated with a 160 kilovolt potential (18-ma) source at a focal distance of 25 cm, hardened with a 0.35 mm A1 filtration system. Irradiation targeted the total body at a rate of approximately 1.0 Gy/minute. The total radiation dose and dose rate was measured in real time with a Farmer-type ionization chamber and a Fluke 35040 ATD dosimeter. No anesthesia was used during irradiation. Animals were monitored for survival twice daily and those that lost greater than 30% of their total starting body weight were euthanized. Animals in Groups 2 through 6 were dosed with apilimod dimesylate or vehicle exactly 3 hrs prior to radiation on Day 0 via oral gavage (PO) or intraperitoneal injection (IP) as indicated in Table 1 below. All animals were given ad libitum access to acidified drinking (pH 2.8-3.0) water from Day 3 through study completion."}
{"molecule": "Cc1cccc(/C=N/Nc2cc(N3CCOCC3)nc(OCCc3ccccn3)n2)c1", "note": "[apilimod dimesylate]", "values": [{"measurement": "percentage of surviving animals", "setting": "60 mg/kg i.p. single dose 3 hrs prior to 8.5 Gy TBI, study to Day 31, vehicle 6.25%", "result": 43.75, "unit": "%"}, {"measurement": "median time of survival", "setting": "60 mg/kg i.p. single dose 3 hrs prior to 8.5 Gy TBI, vehicle 13.5 days", "result": 21, "unit": "days"}, {"measurement": "survival (survival analysis, in words)", "setting": "180 mg/kg p.o. single dose 3 hrs prior to 8.5 Gy TBI, did not reach statistical significance", "result": "trend towards increased survival"}, {"measurement": "survival protection (survival analysis, in words)", "setting": "delivered by intraperitoneal injection, 60 mg/kg, 3 hrs prior to 8.5 Gy TBI", "result": "significant survival protection"}]}
